Experimental data from patent US10287298B2, “Nitrogen-containing analogs of salinomycin, synthesis and use against cancer stem cells and malaria” (Centre National de la Recherche Scientifique (CNRS), priority 2014, dated 2019).
“Also recorded” adds a separate entry of the source.

Key:
[1] = tested on: MCF-7 xenograft; test: Xenograft tumor formation; type: in vivo, mice; details: 3 mg per kg body weight per day, intra peritoneal
Method: Human breast cancer cell line MCF-7 cells cultures were collected, enzymatically dissociated, washed in PBS, and resuspended in PBS/Matrigel mixture (1:1 volume). 0.1 ml of this mixture was then implanted in the mammary fat pad of 5-week-old female AthymicNude-Fox1nu mice (Harlan, France). The mice were maintained in individually-ventilated cages (Tecniplast, France) under constant temperature and humidity; all experiments were performed under laminar flow (Tecniplast France). The mice received estradiol supplementation (0.4 mg/kg) in the same day and 7th day from cell injection, and were observed and palpated for tumor appearance. The mice received Salinomycine analogue (here AM5, 3 mg per kg body weight per day, intra peritoneal injection) every 5 opened days of the week for 33 days. Tumor growth was measured weekly using calipers. Tumor volume was determined using the standard formula: L×W2×0.52, where L and W are the longest and shortest diameters, respectively. […]
Xenograft tumor formation experiments: MCF-7 cell cultures were collected, enzymatically dissociated, washed with PBS, and re-suspended in a PBS/Matrigel mixture (1:1 v/v). […] Tumor growth was measured weekly using calipers. Tumor volume was determined using the standard formula: L×W2×0.52, where L and W are the longest and shortest diameters, respectively. […]

[2] = tested on: HMLER CD24low cells; test: Reactive Oxygen Species (ROS) levels by flow cytometry (CM-H2DCF-DA); type: cell-based, Human; details: cells treated for 48 h
Method: Reactive Oxygen Species (ROS) levels were measured by flow cytometry or by confocal scanning immunofluorescence microscopy using CM-H2DCF-DA (C6827, invitrogen). Briefly, U2OS and HMLER CD24low cells were treated as indicated in FIG. 11 (30 nM, 500 nM or 1 μM of salinomycine, AM5 or AM23 or untreated during 48 h). Then, these cells were trypsined and incubated with 5 μM CM-H2DCF-DA at 37° C. for 40 min, washed once with PBS and were counterstained with DAPI (0.5 μg/ml) to exclude non-viable cells. The mean fluorescence intensity was determined as ROS production by flow cytometry with LSRFortessa™ cytometer (BD Bioscience, San Jose, Calif.). For immunofluorescence microscopy analysis, cells were seeded on coverslips and were treated with salinomycine derivatives (injection in culture medium then treatment during 24 h, 48 h and 72 h). LysoTracker® Red DND-99 (L-7528, Life technologies) was used to visualize lysosomes. Then, cells were fixed with 4% PFA/PBS. DAPI was used to visualize nuclear DNA. Cell images were obtained using a Deltavision real-time microscope (Applied Precision) or an ApoTome.2 microscope (Zeiss). ImageJ was used for further image processing.
FACS analysis of ROS in cells treated for 48 h is represented in FIG. 17.

[3] = tested on: TICs; details: cited from earlier work

## C#CCN[C@@H]1C=C[C@]2(O[C@H]([C@@H](CC)C(=O)[C@@H](C)[C@@H](O)[C@H](C)C3O[C@@H](C(CC)C(=O)O)CC[C@@H]3C)[C@@H](C)C[C@H]2C)O[C@@]12CC[C@@](C)([C@H]1CC[C@](O)(CC)[C@H](C)O1)O2 (stereo partly shown) [AM5, Sal-Propargylamine]
[1]; 33 days
  tumor volume and tumor weight: lower
[1]; MCF-7 xenograft-bearing mice
  tumor growth: inhibits breast cancer tumor growth; also recorded: prevented tumor growth
[2]
  ROS production under pharmacological inhibition of Cathepsin B: prevents AM5 from inducing ROS production

## CCC(C(=O)O)[C@H]1CC[C@H](C)C([C@@H](C)[C@H](O)[C@H](C)C(=O)[C@H](CC)[C@H]2O[C@]3(C=C[C@@H](O)[C@]4(CC[C@@](C)([C@H]5CC[C@](O)(CC)[C@H](C)O5)O4)O3)[C@H](C)C[C@@H]2C)O1 (stereo partly shown) [Salinomycine, Salinomycin]
[3]
  efficacy in reducing the amount of TICs relative to paclitaxel: 100 fold
